Common to all, as to experiment: Pyranose oxidase activity (properties of pyranose oxidase, method of Nishimura et al. 1996)
In series [1] the target is T1, Lyophyllum shimeji antimicrobial protein (pyranose oxidase), native, purified MonoQ fractions Nos. 42-44 containing the 65 kDa + 70 kDa proteins, SEQ ID NO:2 (Lyophyllum shimeji, UniProt Q75ZP8).
T1 construct: MonoQ fractions 42-44 holding the 70 kDa precursor (1-618) and 65 kDa mature form (76-618), both from a single gene; not the His-tagged E. coli product
T1 sequence (Q75ZP8 76-618): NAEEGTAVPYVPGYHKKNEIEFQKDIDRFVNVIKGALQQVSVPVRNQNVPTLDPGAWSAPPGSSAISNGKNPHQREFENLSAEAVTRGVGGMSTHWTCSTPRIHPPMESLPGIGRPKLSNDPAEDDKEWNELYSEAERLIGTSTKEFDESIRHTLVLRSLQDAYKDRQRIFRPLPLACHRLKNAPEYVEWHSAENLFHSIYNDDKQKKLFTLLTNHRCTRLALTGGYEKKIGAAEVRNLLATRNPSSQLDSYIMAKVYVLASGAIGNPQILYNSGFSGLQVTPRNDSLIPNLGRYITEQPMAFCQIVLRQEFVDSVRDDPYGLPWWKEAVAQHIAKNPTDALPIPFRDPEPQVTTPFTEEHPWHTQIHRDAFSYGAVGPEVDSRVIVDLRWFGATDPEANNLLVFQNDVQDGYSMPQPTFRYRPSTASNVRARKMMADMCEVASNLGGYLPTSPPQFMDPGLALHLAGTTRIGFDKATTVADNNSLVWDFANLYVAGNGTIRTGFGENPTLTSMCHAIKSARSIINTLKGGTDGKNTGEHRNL
The format is biochemical. The following applies: result in words. On the procedure: (§1) The amino acid sequences thus determined were searched for in a data base. […] Thus, the pyranose oxidase activity of each MonoQ fraction was measured in accordance with the method of Nishimura et al. (1996). […] Accordingly, it is estimated that the antimicrobial activity would be derived from hydrogen peroxide formed during the oxidation of glucose in the medium by this enzyme. Next, the fractions containing both of the 65 kDa and 70 kDa proteins (FIG. 2 Nos. 42–44) were exclusively concentrated and properties of pyranose oxidase were analyzed. […] The amount of the enzyme proteins (65 kDa+70 kDa) was determined by SDS-PAGE silver staining.

Substrate in series [2]: OC[C@H]1OC[C@H](O)[C@@H](O)[C@@H]1O
The format is biochemical, Lyophyllum shimeji. Conditions: other: native L. shimeji enzyme protein (65 kDa+70 kDa), table footnote (activity unit): pH 7.0, 37° C. On the procedure: as §1

Substrate in series [3]: OC[C@H]1OC(O)[C@H](O)[C@@H](O)[C@@H]1O
In kind it is biochemical, Lyophyllum shimeji. Conditions: other: native L. shimeji enzyme protein (65 kDa+70 kDa), table footnote (activity unit): pH 7.0, 37° C. How it is done:
as §1

`OC[C@H]1OC[C@H](O)[C@@H](O)[C@@H]1O` [1,5-Anhydroglucitol]: in series [1], the “Km values to 1,5-anhydroglucitol” value is “low”.

For `OC[C@H]1OC(O)[C@H](O)[C@@H](O)[C@@H]1O` (stereo partly shown) [Glucose], in series [1], the “Km values to glucose” value is recorded as “low”.

B1: Lyophyllum shimeji antimicrobial protein (pyranose oxidase), native, purified MonoQ fractions Nos. 42-44 containing the 65 kDa + 70 kDa proteins, SEQ ID NO:2 … (protein)
chain: T1 sequence (Q75ZP8 76-618)
notes: MonoQ fractions 42-44 holding the 70 kDa precursor (1-618) and 65 kDa mature form (76-618), both from a single gene; not the His-tagged E. coli product
Take B1: the Km (as a rule, the substrate concentration at which the rate is half of its maximum) in series [2] worked out at 6.5 mM; in series [3], 0.50 mM.

The values above are taken from US7232673B2, “Antimicrobial protein from Lyophyllum shimeji” (Japan Tobacco Inc., priority 1999, dated 2007).
